Calls of active or inactive are those of the source. How the calls were made is not given here.
Tested on: rodent lifetime carcinogenesis bioassay, tumor incidence TD50
Test: carcinogenic potency in animals, long-term in vivo studies, CPDB compilation (AID 1745844)

Nc1ccc(-c2ccc(N)c(N)c2)cc1N
224 mg/kg/day: TD50 (mouse, strain CD-1 HaM/ICR, males, in feed, site: any site (literature study), lesion: several types, types named in the paper, dosed 77 weeks, study length 94 weeks)
active: TD50 (mouse, strain CD-1 HaM/ICR, males, in feed, site: lung, lesion: several types, types named in the paper, dosed 77 weeks, study length 94 weeks) 288 mg/kg/day | TD50 (rat, strain Charles River CD (Sprague-Dawley), males, in feed, site: liver, lesion: hepatoma, dosed 77 weeks, study length 107 weeks) 395 mg/kg/day
200 mg/kg/day: TD50 (rat, strain Charles River CD (Sprague-Dawley), males, in feed, site: any site (literature study), lesion: several types, types named in the paper, dosed 77 weeks, study length 107 weeks)
259 mg/kg/day: TD50 (rat, strain Charles River CD (Sprague-Dawley), males, in feed, site: liver, lesion: several types, types named in the paper, dosed 77 weeks, study length 107 weeks)
inactive: TD50 (mouse, strain CD-1 HaM/ICR, females, in feed, site: any site (literature study), lesion: several types, types named in the paper, dosed 77 weeks, study length 98 weeks) 599 mg/kg/day | TD50 (mouse, strain CD-1 HaM/ICR, females, in feed, site: liver, lesion: several types, types named in the paper, dosed 77 weeks, study length 98 weeks) 1690 mg/kg/day | TD50 (mouse, strain CD-1 HaM/ICR, females, in feed, site: lung, lesion: several types, types named in the paper, dosed 77 weeks, study length 98 weeks) 1030 mg/kg/day | TD50 (mouse, strain CD-1 HaM/ICR, males, in feed, site: liver, lesion: several types, types named in the paper, dosed 77 weeks, study length 94 weeks) 4170 mg/kg/day

CN(N=O)c1ccc([N+](=O)[O-])cc1
inactive: carcinogen call (rat, strain Fischer 344, males, in drinking water, site: any site (literature study), lesion: several types, types named in the paper, dosed 50 weeks, study length 114 weeks) negative | TD50 (rat, strain Fischer 344, males, in drinking water, site: liver, lesion: hyperplastic nodule, dosed 50 weeks, study length 114 weeks) 5.87 mg/kg/day

CC(=O)OC1CC(C)CCC1C(C)C (stereo not drawn) (tested in a mixture with another compound)
112 mg/kg/day: TD50 (mouse, strain CFLP, males, by gavage, site: any site (literature study), lesion: malignant tumor, dosed 80 weeks, study length 104 weeks)

CC(Oc1cc(Cl)ccc1Cl)C(=O)O (stereo not drawn)
inactive: carcinogen call (mouse, strain B6AKF1, females, oral dosing, site: any site (literature study), lesion: several types, types named in the paper, dosed 76 weeks, study length 76 weeks) negative | carcinogen call (mouse, strain B6AKF1, females, oral dosing, site: liver, lesion: hepatoma, dosed 76 weeks, study length 76 weeks) negative | carcinogen call (mouse, strain B6AKF1, females, oral dosing, site: lung, lesion: adenoma, dosed 76 weeks, study length 76 weeks) negative | carcinogen call (mouse, strain B6AKF1, males, oral dosing, site: any site (literature study), lesion: several types, types named in the paper, dosed 76 weeks, study length 76 weeks) negative | carcinogen call (mouse, strain B6AKF1, males, oral dosing, site: liver, lesion: hepatoma, dosed 76 weeks, study length 76 weeks) negative | carcinogen call (mouse, strain B6AKF1, males, oral dosing, site: lung, lesion: adenoma, dosed 76 weeks, study length 76 weeks) negative | carcinogen call (mouse, strain B6C3F1, females, oral dosing, site: any site (literature study), lesion: one or several types, types not named, dosed 76 weeks, study length 76 weeks) negative | carcinogen call (mouse, strain B6C3F1, females, oral dosing, site: liver, lesion: hepatoma, dosed 76 weeks, study length 76 weeks) negative | carcinogen call (mouse, strain B6C3F1, females, oral dosing, site: lung, lesion: several types, types named in the paper, dosed 76 weeks, study length 76 weeks) negative | TD50 (mouse, strain B6C3F1, males, oral dosing, site: any site (literature study), lesion: several types, types named in the paper, dosed 76 weeks, study length 76 weeks) 10.5 mg/kg/day | TD50 (mouse, strain B6C3F1, males, oral dosing, site: liver, lesion: hepatoma, dosed 76 weeks, study length 76 weeks) 36.7 mg/kg/day | TD50 (mouse, strain B6C3F1, males, oral dosing, site: lung, lesion: adenoma, dosed 76 weeks, study length 76 weeks) 36.7 mg/kg/day

CN=C(NC#N)NCCSCc1nc[nH]c1C
inactive: TD50 (mouse, strain C57BL/6, females, in drinking water, site: liver, lesion: several types, types named in the paper, dosed 126 weeks, study length 126 weeks) 52200 mg/kg/day | carcinogen call (mouse, strain C57BL/6, females, in drinking water, site: lung, lesion: one or several types, types not named, dosed 126 weeks, study length 126 weeks) negative | carcinogen call (rat, strain Charles River CD (Sprague-Dawley), females, by gavage, site: gastric mucosa, lesion: carcinoid tumor, malignant, dosed 105 weeks, study length 105 weeks) negative | carcinogen call (rat, strain Charles River CD (Sprague-Dawley), males, by gavage, site: gastric mucosa, lesion: carcinoid tumor, malignant, dosed 105 weeks, study length 105 weeks) negative
